Each block holds one compound with its values, some of them ahead of it.
Experiments:
Type in all cases: biochemical
[1] = target: T1, equine alcohol dehydrogenase (ADH) (Equus caballus, UniProt P00327); test: NADH absorbance ([…] nm) ethanol oxidation assay with recombinant enzyme
T1 construct: recombinant equine ADH

[2] = target: T2, bovine glutamate dehydrogenase type I (GDH) (Bos taurus, UniProt P00366); test: NADH absorbance ([…] nm) assay with and without […] zinc
T2 construct: gene GLUD1

[3] = target: T1, equine alcohol dehydrogenase (ADH); test: NADH absorbance ([…] nm) ethanol oxidation assay with recombinant enzyme; remark: listed apart in the source
[4] = target: T3, yeast alcohol dehydrogenase (ADH) (Saccharomyces cerevisiae, UniProt P00330); test: NADH absorbance ([…] nm) ethanol oxidation assay with isolated enzyme
T3 construct: gene ADH1
T3 sequence (P00330 2-348): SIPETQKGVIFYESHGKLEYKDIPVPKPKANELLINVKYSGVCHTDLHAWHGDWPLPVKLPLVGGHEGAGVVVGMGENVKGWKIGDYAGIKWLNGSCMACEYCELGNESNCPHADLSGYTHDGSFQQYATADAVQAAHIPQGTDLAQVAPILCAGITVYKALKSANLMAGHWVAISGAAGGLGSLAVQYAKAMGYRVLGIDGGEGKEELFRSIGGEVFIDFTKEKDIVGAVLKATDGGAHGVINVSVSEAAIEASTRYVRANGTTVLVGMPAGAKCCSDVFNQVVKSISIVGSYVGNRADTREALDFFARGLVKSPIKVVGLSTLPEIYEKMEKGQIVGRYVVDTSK

[5] = target: T1, equine alcohol dehydrogenase (ADH); test: NADH absorbance ([…] nm) ethanol oxidation assay with recombinant enzyme; remark: listed apart in the source

T1 sequence (P00327 2-375): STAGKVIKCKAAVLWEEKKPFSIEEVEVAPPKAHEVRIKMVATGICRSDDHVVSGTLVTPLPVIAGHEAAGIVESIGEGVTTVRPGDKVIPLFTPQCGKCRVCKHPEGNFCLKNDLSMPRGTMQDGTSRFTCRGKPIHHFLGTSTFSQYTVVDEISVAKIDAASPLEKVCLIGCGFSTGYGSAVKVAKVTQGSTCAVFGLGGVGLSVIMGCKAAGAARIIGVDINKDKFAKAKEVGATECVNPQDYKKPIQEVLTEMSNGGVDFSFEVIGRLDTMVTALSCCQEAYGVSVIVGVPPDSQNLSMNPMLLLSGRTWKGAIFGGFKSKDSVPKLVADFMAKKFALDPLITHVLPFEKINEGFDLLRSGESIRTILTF
T2 sequence (P00366 58-558): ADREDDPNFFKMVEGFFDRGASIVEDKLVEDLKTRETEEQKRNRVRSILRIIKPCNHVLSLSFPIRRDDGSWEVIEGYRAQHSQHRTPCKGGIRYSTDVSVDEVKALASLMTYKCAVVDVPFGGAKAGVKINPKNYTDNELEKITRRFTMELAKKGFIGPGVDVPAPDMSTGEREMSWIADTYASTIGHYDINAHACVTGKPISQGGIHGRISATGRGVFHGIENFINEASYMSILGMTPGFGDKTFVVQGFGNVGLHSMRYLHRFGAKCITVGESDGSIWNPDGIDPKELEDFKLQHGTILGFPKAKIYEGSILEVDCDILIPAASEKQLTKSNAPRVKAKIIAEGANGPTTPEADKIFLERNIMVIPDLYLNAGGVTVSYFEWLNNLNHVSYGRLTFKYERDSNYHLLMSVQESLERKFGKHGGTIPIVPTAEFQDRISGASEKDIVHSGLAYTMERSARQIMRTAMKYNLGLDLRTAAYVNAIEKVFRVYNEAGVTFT

Structure (SMILES): COc1cc([C@@H]2Oc3cc(-c4oc5cc(O)cc(O)c5c(=O)c4O)ccc3O[C@H]2CO)ccc1O [DHS-B, 2,3-dehydrosilybin B]
NADH absorbance (340 nm) ethanol oxidation assay with recombinant enzyme [1]: Inhibition of equine ADH by active flavonolignans

Structure (SMILES): COc1cc(C2Oc3cc(-c4oc5cc(O)cc(O)c5c(=O)c4O)ccc3OC2CO)ccc1O (racemic) [DHS, 2,3-dehydrosilybin]
NADH absorbance (340 nm) assay with and without 150 μM zinc [2]: they were particularly potent inhibitors of the enzyme itself

IC50 [3]: 0.00525 mM | IC50 [4]: 14 mM
Structure (SMILES): Cc1cn[nH]c1 [fomepizole]

Structure (SMILES): COc1cc([C@H]2Oc3cc(-c4oc5cc(O)cc(O)c5c(=O)c4O)ccc3O[C@@H]2CO)ccc1O [DHS-A, 2,3-dehydrosilybin A]
inhibition at 10 µM [5]: ~20%
